From article PMC9501810, “Bitter Peptides YFYPEL, [sequence], and [sequence], Released during Gastric Digestion of Casein, Stimulate Mechanisms of Gastric Acid Secretion via Bitter Taste Receptors TAS2R16 and TAS2R38” (Journal of Agricultural and Food Chemistry, 2022)

Key:
TAS2R16 = test: Proton secretion assay in TAS2R16 knock-down vs mock-transfected HGT-1 cells; assay type: cell-based, human; settings: TAS2R16kd vs mock-transfected HGT-1 cells, VAPFPEVF 17.5 µM, YFYPEL 0.03 µM, YQEPVLGPVRGPFPIIV 0.4 µM, 10 min, mean ± SEM; for decrease of the peptide-induced increase in proton secretion activity in TAS2R16kd cells: 72 h after 10 nM siRNA; for change of peptide-induced proton secretion, TAS2R16kd (Figure 5B–D): negative = reduction
Procedure: The measurement of proton secretion from HGT-1 cells represents a well-established model for the identification of bitter compounds. By affecting extraoral bitter taste receptors with bitter compounds, a modulatory effect on proton secretion can be measured. For this purpose, cells were washed with KRHB and incubated with 3 μM of the intracellular pH indicator 1,5 carboxy-seminaphto-rhodafluor acetoxymethyl ester (SNARF-1-AM) under standard conditions. After 30 min, the cells were washed again with KRHB and then incubated with casein (0.01–10 μM equimolar related to the relevant forms αS1- and β-casein), hydrolysate (0.01–10 μM), or the peptides (0.01–200 μM). […] All substances were dissolved and diluted in KRHB. 1 mM histamine was used as a positive control. Measurements were performed using FlexStation 3 (Molecular Devices, USA). The excitation wavelength was 488 nm, and the emission wavelengths were 580 and 640 nm. For calibration (pH range 7.0–8.0), the intracellular and extracellular pH was adjusted with 2 μM nigericin in potassium buffer (20 mM NaCl, 110 mM KCl, 1 mM CaCl2, 1 mM MgSO4, 18 mM D-glucose, and 20 mM HEPES). The intracellular proton index (IPX) was calculated as the log2 value of the 580/640 ratio and compared with cells without treatment. Negative values represent increased secretion of protons and therefore stimulation of mechanisms regulating gastric acid secretion in HGT-1 cells. In contrast, positive values represent an inhibition of secretion compared to the untreated control.
Expression of TAS2R16 and TAS2R38 was reduced by treatment of HGT-1 cells with siRNA. 100,000 cells per well were seeded 1 day before the experiment into a 24-well plate. All reagents and siRNA were purchased from Thermo Fisher Scientific, USA (cytotoxicity was excluded by MTT). Transfection was performed with Lipofectamine RNAiMAX in Opti-Medium according to the manufacturer’s protocol. 1–50 nM of different siRNA sequences (HSS121396 and HSS181763 for TAS2R16 and HSS108754 and HSS108756 for TAS2R38) and three different incubation times (24, 48, and 72 h) were tested. Mock control experiments were performed analogously with 1 or 10 nM Stealth RNAi siRNA negative control. To verify the functionality of the transfection process, verified 10 nM siRNA targeting MAPK1 (VHS40312) was used (positive control). The transfection rate was checked by qPCR as described in section 2.11. For the proton secretion assays, 20,000 cells per well were seeded 1 day before transfection into a black 96-well plate. After 72 h of transfection, proton secretion activities of TAS2R16 knock-down or TAS2R38 knock-down HGT-1 were compared with the mock transfected cells by means of ΔIPX.

pepsin = test: In vitro gastric digestion of casein with targeted UHPLC-MS/MS-MRM quantitation of peptides; assay type: in vitro ADME, porcine; settings: 37 °C, n = 4; for degradation of the peptide during further in vitro gastric digestion: up to 6 h
Procedure: The in vitro digestion was based on the Nature protocol established by Brodkorb et al.([30]) For this, simulated salivary fluid (SSF, containing 15.1 mM KCl, 3.7 mM KH2PO4, 13.6 mM NaHCO3, 0.15 mM MgCl2(H2O)6, 0.06 mM (NH4)2CO3, 1.1 mM HCl, and 1.5 mM CaCl2(H2O)2) and simulated gastric fluid (SGF, containing 6.9 mM KCl, 0.9 mM KH2PO4, 25.0 mM NaHCO3, 47.2 mM NaCl, 0.12 mM MgCl2(H2O)6, 0.5 mM (NH4)2CO3, 15.6 mM HCl, and 0.15 mM CaCl2(H2O)2) were prepared. A total amount of 100 mg casein was suspended in 3 mL of SSF and incubated for 5 min at 37 °C in the tube rotator. After taking a sample (500 μL, t = 0 h), 2 mL of SGF was added and the pH was adjusted to 3 with 100 μL of HCl (1 M). After addition of 125 μL of pepsin solution (80,000 U/mL in 10 mM HCl), 275 μL of H2O was added to fill up to 5 mL. This was followed by further incubation at 37 °C in a tube rotator for 6 h. 500 μL of samples was taken at 0.25, 0.5, 0.75, 1, 2, 3, 4, 5, and 6 h, respectively. The samples were frozen in liquid nitrogen and stored at −80 °C until further analysis. For MS experiments, all samples were diluted 1:1 with 10% MeCN.
All targeted proteomics LC–MS/MS measurements were performed using a Sciex ExionLC AC (Sciex, Darmstadt, Germany) coupled to a 6500+ QTrap LC–MS/MS system (Sciex, Darmstadt, Germany) operating in the positive electrospray ionization mode. Data acquisition and instrumentation control were performed with AnalystTF software (v 1.7.1; Sciex, Darmstadt, Germany). Separation was performed using a 100 × 2.1 mm, 1.7 μm, Kinetex C18 column (Phenomenex, Aschaffenburg, Germany) with a guard column of the same type with 0.1% aqueous formic acid and acetonitrile containing 0.1% formic acid at a flow rate of 0.25 mL/min. The gradient was based on the following scheme: 0 min, 15% B; 7 min, 40% B; 7.5 min, 98% B; 10.5 min, 98% B; 10.8 min, 15% B; and 15 min, 15% B. The column oven temperature was set at 40 °C, and the injection volume was 1 μL per sample. For MS/MS measurements, the same parameters were used for all samples (ion spray voltage […], source temperature 450 °C, nebulizing gas 60 psi, and heating gas 30 psi). Nitrogen was set to 35 psi and served as a curtain gas to effectively dissolve the ions. To optimize the parameters DP, CE, and collision cell exit potential for each peptide and transition (Supporting Information Table-SI 2), standard solutions of the five synthesized peptides were injected directly into the MS ion source. Ionization parameters were optimized in positive ESI mode using AnalystTF software (v 1.7.1; Sciex, Darmstadt, Germany). For the preparation of the calibration curves, five peptides were dissolved individually in D2O (600 μL) and the concentration of the stock solutions was determined by qNMR.[35] For each peptide, seven calibration solutions (0.5, 1, 5, 10, 50, 100, and 200 μM) were diluted in 5% MeCN from these stock solutions. The data were analyzed using MultiQuant software (v 3.0.3; Sciex, Darmstadt, Germany).

## VAPFPEVF [bitter casein peptide αS1-CN25–32]
TAS2R16
  decrease of the peptide-induced increase in proton secretion activity in TAS2R16kd cells: 77.4 ± 10.1%
  change of peptide-induced proton secretion, TAS2R16kd (Figure 5B–D): -77.4 ±10.1%
pepsin; SGF pH 3 with pepsin
  degradation of the peptide during further in vitro gastric digestion: no noticeable degradation

## YFYPEL [bitter casein peptide αS1-CN144–149]
TAS2R16
  decrease of the peptide-induced increase in proton secretion activity in TAS2R16kd cells: 86.3 ± 9.9%
  change of peptide-induced proton secretion, TAS2R16kd (Figure 5B–D): -86.3 ±9.9%
pepsin; SGF pH 3 with pepsin
  degradation of the peptide during further in vitro gastric digestion: no noticeable degradation

## YQEPVLGPVRGPFPIIV [bitter casein peptide βA1/A2-CN193–209]
TAS2R16
  decrease of the peptide-induced increase in proton secretion activity in TAS2R16kd cells: 76.6 ± 9.9%
  change of peptide-induced proton secretion, TAS2R16kd (Figure 5B–D): -76.6 ±9.9%
pepsin; 100 mg casein, SGF pH 3 with pepsin, 6 h, mean
  final concentration after 6 h of in vitro digestion: 22.5 µM
pepsin; 100 mg casein, SSF then SGF pH 3 with pepsin, 0–6 h, mean
  highest concentration released during in vitro digestion: up to 300.8 μM
pepsin; SGF pH 3 with pepsin
  degradation of the peptide during further in vitro gastric digestion: continuous cleavage over the 6 h
